# Data: patent publication US9012489B2, “Phenyl-3-aza-bicyclo[3.1.0]hex-3-yl-methanones and the use thereof as medicament” (Boehringer Ingelheim International GmbH, priority 2011, dated 2015)
# Target: T1, GlyT1 transporter (Homo sapiens, UniProt P48067)
# T1 construct: endogenously expressing the GlyT1 transporter; host or cells: SK-N-MC human neuroblastoma cells
# T1 sequence (P48067 1-706): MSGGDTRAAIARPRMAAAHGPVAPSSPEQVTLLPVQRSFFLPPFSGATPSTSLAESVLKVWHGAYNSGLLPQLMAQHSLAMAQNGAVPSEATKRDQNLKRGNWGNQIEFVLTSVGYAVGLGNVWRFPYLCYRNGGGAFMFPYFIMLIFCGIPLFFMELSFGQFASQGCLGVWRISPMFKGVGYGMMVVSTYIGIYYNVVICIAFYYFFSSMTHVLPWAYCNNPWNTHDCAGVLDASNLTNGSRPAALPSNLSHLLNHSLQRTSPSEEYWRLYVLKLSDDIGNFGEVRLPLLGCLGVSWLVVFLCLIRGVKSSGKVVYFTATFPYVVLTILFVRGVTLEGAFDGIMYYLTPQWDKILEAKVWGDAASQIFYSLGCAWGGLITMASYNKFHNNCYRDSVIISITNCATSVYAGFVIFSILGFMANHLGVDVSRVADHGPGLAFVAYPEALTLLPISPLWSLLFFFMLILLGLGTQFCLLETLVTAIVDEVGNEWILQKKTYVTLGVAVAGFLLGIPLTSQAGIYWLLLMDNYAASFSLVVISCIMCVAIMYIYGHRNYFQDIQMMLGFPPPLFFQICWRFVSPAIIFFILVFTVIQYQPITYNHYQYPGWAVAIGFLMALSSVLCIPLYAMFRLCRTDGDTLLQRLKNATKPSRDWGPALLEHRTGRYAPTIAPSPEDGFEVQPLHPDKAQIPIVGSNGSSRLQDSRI
# Experiment: GlyT1 assay: 3H-glycine uptake into SK-N-MC cells (Cytostar-T format)
# Assay type: cell-based
# Details: glycine uptake in human SK-N-MC cells endogenously expressing GlyT1; 500 nM glycine, 1% DMSO, signal recorded over 60 min
# Source text: Cells expressing either endogenously the GlyT1 transporter like JAR cells (human placental choriocarcinoma cells; e.g. WO 2008/002583) or SK-N-MC cells (human neuroblastoma cells; Depoortere et al., 2005. Neuropsychopharmacology 30:1963-1985) or primary neurons or cells which have been transfected with a plasmid encoding the cDNA of a functional GlyT1 transporter and stably or transiently express GlyT1 (e.g. WO 2006/08200) can be used to monitor glycine uptake in cells. Different protocols for determination of the glycine uptake into the cells described above can be applied in order to identify and rank compounds which interfere with glycine uptake in the selected cell.
# Compounds outlined in the examples below were characterized using human SK-N-MC cells (ATCC number HTB-10) endogenously expressing the GlyT1 transporter which is responsible for the uptake of glycine into these cells and the uptake of glycine into these cells is monitored using the Cytostar-T assay format (GE Healthcare, RPNQ0162) which is based on the radioactive glycine taken up by the cells and brought into proximity with the scintillant contained within the base of the plate. The radioactive decay is converted to a light signal based on the integration of the scintillation matrix into the assay plate. The uptake is recorded as kinetic and the slope of the measured counts over time is used to calculate IC50.
# In detail, SK-N-MC cells are seeded into 96-well Cytostar-T assay plates at a density of 200,000 cells/well and grown for 16-18 hours to confluence in growth medium as recommended by ATCC. Before starting the assay, cells are washed once with HBSS (Hank's buffered salt solution; Sigma, H8264) cont. 5 mM alanine (referred in here as HBSS/Ala) and afterwards the following reagents are added: • 1. 80 μl/well HBSS/Ala • 2. 20 μl/well of HBSS/Ala containing 6× the concentration of compound in 6% DMSO • 3. approx. 5-10 min incubation • 4. 20 μl/well 3 μM glycine (^3H-glycine (Perkin Elmer, NET004001MC, specific activity: 52 Ci/mmol; diluted 1:1 with unlabelled glycine) in HBSS/Ala.
# In the final assay, glycine concentration is 500 nM (250 nM derived from the ^3H-glycine Perkin Elmer, 250 nM unlabelled glycine), DMSO concentration is 1%.
# The assay plate is immediately after addition of the ^3H-glycine placed into a Micro-Beta Counter (Perkin Elmer) and the signal is recorded over 60 min.
# To calculate uptake, the slope in the linear range of the kinetics is determined using GraphPadPrism and for the different slopes at the selected concentrations IC50 are calculated by curve fitting using the software GraphPadPrism.
# Maximal glycine uptake in every experiment is determined by incubation of SK-N-MC cells with substrate but without inhibitor. Unspecific uptake of glycine by the cells is determined by incubating the cells with substrate and a reference GlyT1 inhibitor e.g. 10 μM RG-1678 (Pinard et al., 2010, J. Med. Chem. 53(12):4603-14).
# Compounds are diluted from 10 mM stocks and in general, for IC50 determination 8 compound concentrations are used.
row,Structure (SMILES),IC50 [nM]
1,"C[C@H](Oc1ccc(S(C)(=O)=O)cc1C(=O)N1CC2CC2(c2nnc(C3(C(F)(F)F)CC3)o2)C1)C(F)(F)F (single isomer, unassigned) [Example 152, [5-Methanesulfonyl-2-(2,2,2-trifluoro-1-methyl-ethoxy)-phenyl]-{1-[5-(1-trifluoromethyl-cyclopropyl)-[1,3,4]oxadiazol-2-yl]-3-aza-bicyclo[3.1.0]hex-3-yl}-methanone]",10
2,"C[C@H](Oc1ccc(S(C)(=O)=O)cc1C(=O)N1CC2CC2(c2cc(C(F)(F)F)on2)C1)C(F)(F)F (single isomer, unassigned) [Example 47, [5-Methanesulfonyl-2-(2,2,2-trifluoro-1-methyl-ethoxy)-phenyl]-[1-(5-trifluoromethyl-isoxazol-3-yl)-3-aza-bicyclo[3.1.0]hex-3-yl]-methanone]",7
3,"C[C@@H](Oc1ccc(S(C)(=O)=O)cc1C(=O)N1CC2CC2(c2csc(C(F)(F)F)n2)C1)C(F)(F)F (single isomer, unassigned) [Example 31, [5-Methanesulfonyl-2-(2,2,2-trifluoro-1-methyl-ethoxy)-phenyl]-[1-(2-trifluoromethyl-thiazol-4-yl)-3-aza-bicyclo[3.1.0]hex-3-yl]-methanone]",1010
4,"Cc1nc(C23CC2CN(C(=O)c2cc(S(C)(=O)=O)ccc2O[C@@H](C)C(F)(F)F)C3)no1 (mixture of isomers) [Example 6, [5-Methanesulfonyl-2-(2,2,2-trifluoro-1-methyl-ethoxy)-phenyl]-[1-(5-methyl-[1,2,4]oxadiazol-3-yl)-3-aza-bicyclo[3.1.0]hex-3-yl]-methanone]",16.5
5,"C[C@@H](Oc1ccc(S(C)(=O)=O)cc1C(=O)N1CC2CC2(c2nnc(C(F)(F)F)o2)C1)C(F)(F)F (mixture of isomers) [Example 122, [5-Methanesulfonyl-2-(2,2,2-trifluoro-1-methyl-ethoxy)-phenyl]-[1-(5-trifluoromethyl-[1,3,4]oxadiazol-2-yl)-3-aza-bicyclo[3.1.0]hex-3-yl]-methanone]",21
6,"C[C@@H](Oc1ccc(S(C)(=O)=O)cc1C(=O)N1CC2CC2(c2noc(C3CC3)n2)C1)C(F)(F)F (single isomer, unassigned) [Example 45, [1-(5-Cyclopropyl-[1,2,4]oxadiazol-3-yl)-3-aza-bicyclo[3.1.0]hex-3-yl]-[5-methanesulfonyl-2-(2,2,2-trifluoro-1-methyl-ethoxy)-phenyl]-methanone]",2
7,"C[C@H](Oc1ccc(S(C)(=O)=O)cc1C(=O)N1CC2CC2(c2noc(CC(F)(F)F)n2)C1)C(F)(F)F (mixture of isomers) [Example 61, [5-Methanesulfonyl-2-(2,2,2-trifluoro-1-methyl-ethoxy)-phenyl]-{1-[5-(2,2,2-trifluoro-ethyl)-[1,2,4]oxadiazol-3-yl]-3-aza-bicyclo[3.1.0]hex-3-yl}-methanone]",8
8,"C[C@H](Oc1ccc(S(C)(=O)=O)cc1C(=O)N1CC2CC2(c2nccc(C(F)(F)F)n2)C1)C(F)(F)F (single isomer, unassigned) [Example 17, [5-Methanesulfonyl-2-(2,2,2-trifluoro-1-methyl-ethoxy)-phenyl]-[1-(4-trifluoromethyl-pyrimidin-2-yl)-3-aza-bicyclo[3.1.0]hex-3-yl]-methanone]",157
9,"C[C@@H](Oc1ccc(S(C)(=O)=O)cc1C(=O)N1CC2CC2(c2nc(C(F)(F)F)co2)C1)C(F)(F)F (mixture of isomers) [Example 113, [5-Methanesulfonyl-2-(2,2,2-trifluoro-1-methyl-ethoxy)-phenyl]-[1-(4-trifluoromethyl-oxazol-2-yl)-3-aza-bicyclo[3.1.0]hex-3-yl]-methanone]",216
10,"Cc1nc(C23CC2CN(C(=O)c2cc(S(C)(=O)=O)ccc2O[C@@H](C)C(F)(F)F)C3)co1 (mixture of isomers) [Example 32, [5-Methanesulfonyl-2-(2,2,2-trifluoro-1-methyl-ethoxy)-phenyl]-[1-(2-methyl-oxazol-4-yl)-3-aza-bicyclo[3.1.0]hex-3-yl]-methanone]",26
11,"C[C@H](Oc1ccc(S(C)(=O)=O)cc1C(=O)N1CC2CC2(c2nocc2C(F)(F)F)C1)C(F)(F)F (mixture of isomers) [Example 109, [5-Methanesulfonyl-2-(2,2,2-trifluoro-1-methyl-ethoxy)-phenyl]-[1-(4-trifluoromethyl-isoxazol-3-yl)-3-aza-bicyclo[3.1.0]hex-3-yl]-methanone]",45
12,"C[C@@H](Oc1ccc(S(C)(=O)=O)cc1C(=O)N1CC2CC2(c2nnc(C(F)(F)F)o2)C1)C(F)(F)F (single isomer, unassigned) [Example 123, [5-Methanesulfonyl-2-(2,2,2-trifluoro-1-methyl-ethoxy)-phenyl]-[1-(5-trifluoromethyl-[1,3,4]oxadiazol-2-yl)-3-aza-bicyclo[3.1.0]hex-3-yl]-methanone]",13
13,"C[C@H](Oc1ccc(S(C)(=O)=O)cc1C(=O)N1CC2CC2(c2noc(C(C)(C)C(F)(F)F)n2)C1)C(F)(F)F (mixture of isomers) [Example 12, [5-Methanesulfonyl-2-(2,2,2-trifluoro-1-methyl-ethoxy)-phenyl]-{1-[5-(2,2,2-trifluoro-1,1-dimethyl-ethyl)-[1,2,4]oxadiazol-3-yl]-3-aza-bicyclo[3.1.0]hex-3-yl}-methanone]",18
14,"Cc1nc(C23CC2CN(C(=O)c2cc(S(C)(=O)=O)ccc2O[C@@H](C)C(F)(F)F)C3)no1 (single isomer, unassigned) [Example 8, [5-Methanesulfonyl-2-(2,2,2-trifluoro-1-methyl-ethoxy)-phenyl]-[1-(5-methyl-[1,2,4]oxadiazol-3-yl)-3-aza-bicyclo[3.1.0]hex-3-yl]-methanone]",474
15,"C[C@@H](Oc1ccc(S(C)(=O)=O)cc1C(=O)N1CC2CC2(c2cc(C(F)(F)F)on2)C1)C(F)(F)F (single isomer, unassigned) [Example 51, [5-Methanesulfonyl-2-(2,2,2-trifluoro-1-methyl-ethoxy)-phenyl]-[1-(5-trifluoromethyl-isoxazol-3-yl)-3-aza-bicyclo[3.1.0]hex-3-yl]-methanone]",461
16,"C[C@H](Oc1ccc(S(C)(=O)=O)cc1C(=O)N1CC2CC2(c2nc(C3CC3)no2)C1)C(F)(F)F (single isomer, unassigned) [Example 143, [1-(3-Cyclopropyl-[1,2,4]oxadiazol-5-yl)-3-aza-bicyclo[3.1.0]hex-3-yl]-[5-methanesulfonyl-2-(2,2,2-trifluoro-1-methyl-ethoxy)-phenyl]-methanone]",7
17,"C[C@@H](Oc1ccc(S(C)(=O)=O)cc1C(=O)N1CC2CC2(c2nnc(C3(C(F)(F)F)CC3)o2)C1)C(F)(F)F (single isomer, unassigned) [Example 149, [5-Methanesulfonyl-2-(2,2,2-trifluoro-1-methyl-ethoxy)-phenyl]-{1-[5-(1-trifluoromethyl-cyclopropyl)-[1,3,4]oxadiazol-2-yl]-3-aza-bicyclo[3.1.0]hex-3-yl}-methanone]",8
